According to BindingDB's records for doi:10.1007/bf00965909 (Biological Research Center of Hungarian Academy of Sciences, 1990):
Several values for one entry are separate records, joined by “and”; a condition that tells them apart may be missing. Equal values may be shown once.

Key:
[1] = target: kappa-type opioid receptor isoform 1 (Xenopus tropicalis, UniProt F7A0F2)
[2] = target: Kappa-type opioid receptor (Rattus norvegicus, UniProt P34975)
Kappa-type opioid receptor, sequence (P34975 whole entry): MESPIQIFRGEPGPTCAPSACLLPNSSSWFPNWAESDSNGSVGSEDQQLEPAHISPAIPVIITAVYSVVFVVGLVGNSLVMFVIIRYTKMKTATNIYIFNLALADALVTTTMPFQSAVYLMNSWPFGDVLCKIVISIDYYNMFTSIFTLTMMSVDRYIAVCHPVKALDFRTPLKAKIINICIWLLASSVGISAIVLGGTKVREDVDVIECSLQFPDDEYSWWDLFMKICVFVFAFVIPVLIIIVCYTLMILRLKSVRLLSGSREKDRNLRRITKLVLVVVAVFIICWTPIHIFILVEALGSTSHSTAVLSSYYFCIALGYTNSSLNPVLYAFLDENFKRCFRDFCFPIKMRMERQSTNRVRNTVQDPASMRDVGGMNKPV

kappa-type opioid receptor isoform 1, sequence (F7A0F2 whole entry, canonical isoform): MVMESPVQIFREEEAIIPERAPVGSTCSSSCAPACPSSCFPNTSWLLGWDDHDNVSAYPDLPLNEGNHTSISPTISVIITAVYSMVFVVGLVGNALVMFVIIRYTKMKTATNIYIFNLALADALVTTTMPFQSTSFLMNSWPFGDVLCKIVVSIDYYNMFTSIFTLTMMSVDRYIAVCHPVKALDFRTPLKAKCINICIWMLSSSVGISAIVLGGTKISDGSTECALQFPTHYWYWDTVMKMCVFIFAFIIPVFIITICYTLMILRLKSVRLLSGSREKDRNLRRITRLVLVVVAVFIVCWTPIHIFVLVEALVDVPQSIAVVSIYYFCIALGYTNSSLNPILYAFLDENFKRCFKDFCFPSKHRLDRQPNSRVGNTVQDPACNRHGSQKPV

Compound | Ki [1] | Ki [2]
CC1[C@H]2Cc3ccc(O)cc3[C@]1(C)CCN2C[C@@H]1CCCO1 (stereo partly drawn) [(+)-alpha-(1R,5R,9R)-5,9-Dimethyl-2-L-tetrahydrofurfuryl)-2'-hydroxy-6,7-benzomorphan] | 5400 nM | –
CC1[C@H]2Cc3ccc(O)cc3[C@]1(C)CCN2C[C@H]1CCCO1 (stereo partly drawn) [CAS_57236-85-8] | 4.8 nM | –
CC[C@H](C)[C@H](NC(=O)[C@H](CCCNC(=N)N)NC(=O)[C@H](CCCNC(=N)N)NC(=O)[C@H](CC(C)C)NC(=O)[C@H](Cc1ccccc1)NC(=O)CNC(=O)CNC(=O)[C@@H](N)Cc1ccc(O)cc1)C(=O)N[C@@H](CCCNC(=N)N)C(=O)N1CCC[C@H]1C(=O)N[C@@H](CCCCN)C(=O)N[C@@H](CC(C)C)C(=O)N[C@@H](CCCCN)C(=O)O [Dynorphin A (1-13)] | 12 nM and 3.1 nM | 57 nM
[N-]=[N+]=N[C@@H]1CC[C@H]2[C@H]3Cc4ccc(O)c5c4[C@@]2(CCN3CC2CC2)[C@@H]1O5 [N-cyclopropylmethylnorazidomorphine] | 0.1 nM | 0.1 nM and 0.2 nM and 0.3 nM
C[C@@H](NC(=O)[C@@H](N)Cc1ccc(O)cc1)C(=O)NCC(=O)N(C)[C@@H](Cc1ccccc1)C(=O)NCCO [[tyrosyl-3,5-3H(N)]-D-Ala2-Mephe4-glyol5-enkephalin] | 59 nM and 360 nM and 470 nM | –
H-YGGFMTSEKSQTPLVTLFKNAIVKNAHKKGQ-OH [Beta-Endorphin] | – | 2.3 nM
